In patent US8575143B2, “3-aryl-substituted quinazolones, and uses thereof” (Prolexys Pharmaceuticals, Inc., priority 2005, dated 2013):
Where two headings read alike, the source gives them in different places.

How the values were obtained:
[1] = test system: HT-1080 cells; assay: Sytox assay, inhibition of growth of HT-1080 cells; type: cell-based; conditions: Homo sapiens, 48 hours exposure
Method: The ability of Compound 1, in DMSO, to inhibit the growth of tumor and normal cells was measured. The compound was assayed by the Sytox primary screen, a phenotypic assay which monitors alterations in cell survival-proliferation as a result of compound treatment. It was devised as high throughput method to identify compounds which specifically alter the growth potential of cells harboring the causative mutations found in cancer patients while not affecting the growth of normal cells. The assay relies upon an inexpensive, simple and reliable readout of a membrane impermeable fluorescent dye (Sytox, from Molecular Probes) which binds to nucleic acid. In healthy cells, no signal is detected because the cell's membrane is intact and the dye will not enter. However, if a cell's membrane is compromised as a result of apoptosis or necrosis, a fluorescent signal proportional to the number of similarly affected cells will be detected. By utilizing a two-step readout (final read in the presence of detergent to permit labeling of all cells), the assay can identify compounds which produce cytostasis, cytotoxicity and/or mitogenesis. The first read or “dead cell” read, provides an estimate of the toxicity of a given compound by indicating the number of dead or dying cells in the culture at the time of assay. The second read or “total cell” read, captures both the cumulative effects of cytoxicity in reducing the size of the cell population as well as any cytostatic or anti-proliferative effects a test compound may exert on the cells in the test population in the absence of toxicity.
Cells were seeded overnight in 96 well plates at densities that without treatment would permit 95% confluence in the wells 72 hours later. The following day, the cells were exposed to test compounds in a dilution series for a period of 48 hours. Following this incubation period, the Sytox reagent was added to the cultures at the manufacturer's recommended concentration and the dead cell fluorescence read was taken. After completion of this measurement, the detergent Saponin was added to each well of the cultures to permeabilize the membranes allowing the Sytox reagent to enter every cell, thereby facilitating measurement of the total number of cells remaining in the culture.
The ability of various compounds of the invention, in DMSO, to inhibit the growth of HT-1080 cells was measured. The HT-1080 cell line used in these experiments was derived from a patient with fibrosarcoma and harbors an activating mutation in the N-ras gene at codon 12. The compound was assayed using the assay described in Example 3. The results of the assay are shown in the table below, where the activity corresponds to the following ranges: A—less than 10 nM, B—10-100 nM, C—100-1000 nM, D—1000-2000 nM, E—greater than 2000 nM.

[2] = test system: HT-1080 xenografts; assay: HT-1080 tumor xenograft, daily IV administration for 5 days; type: in vivo; conditions: nude Balb/c mice, QD x 5 days
Method: The ability of compounds 10 and 25 to inhibit the growth of HT-1080 xenografts following daily, intravenous administration was examined using similar methods (described below). Compounds 10 and 25 were administered for 5 consecutive days and were evaluated at their respective IV MTD doses.
The HT-1080 cell line used in this xenograft study was derived from a patient with fibrosarcoma and harbors an activating mutation in the N-ras gene at codon 12. […] Robust tumor regression was observed when the compounds were administered at their respective MTD. No adverse clinical signs were observed
Nude Balb/c (Nu/Nu strain, Charles River Laboratories), female, 5-6 wks. old (˜22 g average body weight).
• A: Untreated Control, n=6 • B: Vehicle Control for Compound 10, QD×5 days, IV, n=6 • D: Compound 10 @ 25 mg/Kg (MTD), QD×5 days, IV, n=6 • E: Compound 10 @ 12.5 mg/Kg (½ MTD), QD×5 days, IV, n=6 Treatment Schedule: […]
Starting on Day 1, all animals were weighed, and tumor dimensions (L & W) were measured, every other day. […]
The resulting tumor volume values were averaged for each study group for each time point, and were then plotted against time. Variance was expressed as standard error of the mean (±SEM).

[3] = IV maximum tolerated dose (MTD); conditions: Nude Balb/c, mouse, in vivo, QD x 5 days, mice
[4] = test system: tumor cells; assay: Sytox primary screen, inhibition of growth of tumor cells; type: cell-based; conditions: compound in DMSO, 48 hours exposure, Sytox read
Method: The ability of Compound 1, in DMSO, to inhibit the growth of tumor and normal cells was measured. The compound was assayed by the Sytox primary screen, a phenotypic assay which monitors alterations in cell survival-proliferation as a result of compound treatment. It was devised as high throughput method to identify compounds which specifically alter the growth potential of cells harboring the causative mutations found in cancer patients while not affecting the growth of normal cells. The assay relies upon an inexpensive, simple and reliable readout of a membrane impermeable fluorescent dye (Sytox, from Molecular Probes) which binds to nucleic acid. In healthy cells, no signal is detected because the cell's membrane is intact and the dye will not enter. However, if a cell's membrane is compromised as a result of apoptosis or necrosis, a fluorescent signal proportional to the number of similarly affected cells will be detected. By utilizing a two-step readout (final read in the presence of detergent to permit labeling of all cells), the assay can identify compounds which produce cytostasis, cytotoxicity and/or mitogenesis. The first read or “dead cell” read, provides an estimate of the toxicity of a given compound by indicating the number of dead or dying cells in the culture at the time of assay. […]

[5] = compound in DMSO, Sytox assay of Example 3, read-out: Activity (inhibition of growth of HT-1080 cells)
[6] = Sytox read, read-out: IC50, inhibition of proliferation of HT-1080 cells

Row | SMILES | IC50 [1, 5] | other results
1 | CCOc1ccccc1-n1c(C(C)N2CCCN(C)CC2)nc2cc(N)ccc2c1=O (centres unmarked) [Compound 10, 7-amino-3-(2-ethoxyphenyl)-2-(1-(4-methyl-1,4-diazepan-1-yl)ethyl)quinazolin-4(3H)-one] | < 10 nM | inhibition in growth of HT-1080 cell xenograft [2]: inhibition in growth; MTD at 5 days [3]: 25 mg/kg
2 | CN1CCCN(Cc2nc3ccccc3c(=O)n2-c2c(F)cc(F)cc2Cl)CC1 [Compound 18, 3-(2-chloro-4,6-difluorophenyl)-2-((4-methyl-1,4-diazepan-1-yl)methyl)quinazolin-4(3H)-one] | 100 to 1000 nM | 
3 | CCOc1ccccc1-n1c(CN2CCCN(C)CC2)nc2cc(N)ccc2c1=O [Compound 25, 7-amino-3-(2-ethoxyphenyl)-2-((4-methyl-1,4-diazepan-1-yl)methyl)quinazolin-4(3H)-one] | < 10 nM | inhibition in growth of HT-1080 cell xenograft [2]: inhibition in growth
4 | CCOc1ccccc1-n1c(CN2CCCN(C)CC2)nc2cc(C(F)(F)F)ccc2c1=O [Compound 16, 3-(2-ethoxyphenyl)-2-((4-methyl-1,4-diazepan-1-yl)methyl)-7-(trifluoromethyl)quinazolin-4(3H)-one] | 100 to 1000 nM | 
5 | O=c1c2ccccc2nc(CN2CCNCC2)n1-c1ccc(OC(F)(F)F)cc1Cl [Compound 21, 3-(2-chloro-4-(trifluoromethoxy)phenyl)-2-(piperazin-1-ylmethyl)quinazolin-4(3H)-one] | 100 to 1000 nM | 
6 | O=c1c2ccccc2nc(CN2CCNCC2)n1-c1c(F)cc(F)cc1Cl [Compound 17, 3-(2-chloro-4,6-difluorophenyl)-2-(piperazin-1-ylmethyl)quinazolin-4(3H)one] | 100 to 1000 nM | 
7 | CCOc1ccccc1-n1c(C(C)N2CCCN(C)CC2)nc2cc([N+](=O)[O-])ccc2c1=O (centres unmarked) [Compound 12, 3-(2-ethoxyphenyl)-2-(1-(4-methyl-1,4-diazepan-1-yl)ethyl)-7-nitroquinazolin-4(3H)-one] | 100 to 1000 nM | 
8 | CN1CCCN(Cc2nc3cc(N)ccc3c(=O)n2-c2c(Cl)cccc2Cl)CC1 [Compound 22, 7-amino-3-(2,6-dichlorophenyl)-2-((4-methyl-1,4-diazepan-1-yl)methyl)quinazolin-4(3H)-one] | 100 to 1000 nM | 
9 | CCOc1ccccc1-n1c(CN2CCNCC2)nc2cccc(Cl)c2c1=O [Compound 2, 5-chloro-3-(2-ethoxyphenyl)-2-(piperazin-1-ylmethyl)quinazolin-4(3H)-one] | 10 to 100 nM | IC50 [1, 6]: 100 nM
10 | CCOc1ccccc1-n1c(CN2CCCN(C)CC2)nc2cc(NCCOC)ccc2c1=O [Compound 11, 3-(2-ethoxyphenyl)-7-(2-methoxyethylamino)-2-((4-methyl-1,4-diazepan-1-yl)methyl)quinazolin-4(3H)-one] | > 2000 nM | 
11 | CCOc1cc([N+](=O)[O-])ccc1-n1c(CN2CCCNCC2)nc2ccccc2c1=O [Compound 3, 2-((1,4-diazepan-1-yl)methyl)-3-(2-ethoxy-4-nitrophenyl)quinazolin-4(3H)-one] | 100 to 1000 nM | IC50 [1, 6]: 200 nM
12 | CCOc1cc(F)ccc1-n1c(CN2CCCN(C)CC2)nc2cc(N)ccc2c1=O [Compound 19, 7-amino-3-(2-ethoxy-4-fluorophenyl)-2-((4-methyl-1,4-diazepan-1-yl)methyl)quinazolin-4(3H)-one] | < 10 nM | 
13 | CCOc1ccccc1-n1c(CN2CCCN(C)CC2)nc2cc(F)ccc2c1=O [Compound 24, 3-(2-ethoxyphenyl)-7-fluoro-2-((4-methyl-1,4-diazepan-1-yl)methyl)quinazolin-4(3H)-one] | 100 to 1000 nM | 
14 | Nc1ccc2c(=O)n(-c3ccc(F)cc3Cl)c(CN3CCNCC3)nc2c1 [Compound 14, 7-amino-3-(2-chloro-4-fluorophenyl)-2-(piperazin-1-ylmethyl)quinazolin-4(3H)-one] | > 2000 nM | 
15 | CN1CCCN(Cc2nc3ccccc3c(=O)n2-c2ccc(OC(F)(F)F)cc2Cl)CC1 [Compound 20, 3-(2-chloro-4-(trifluoromethoxy)phenyl)-2-((4-methyl-1,4-diazepan-1-yl)methyl)quinazolin-4(3H)-one] | 10 to 100 nM | 
16 | CCOc1ccccc1-n1c(CN2CCCN(C)CC2)nc2cc(NCCN3CCOCC3)ccc2c1=O [Compound 15, 3-(2-ethoxyphenyl)-2-((4-methyl-1,4-diazepan-1-yl)methyl)-7-(2-morpholinoethylamino)quinazolin-4(3H)-one] | 100 to 1000 nM | 
17 | CCOc1ccccc1-n1c(C(C)N2CCN(C(=O)COc3ccc(Cl)cc3)CC2)nc2cc(Cl)ccc2c1=O (centres unmarked) [Compound 1, 2-(1-(4-(2-(4-chlorophenoxy)acetyl)piperazin-1-yl)ethyl)-7-chloro-3-(2-ethoxyphenyl)quinazolin-4(3H)-one] |  | IC50 [4]: ~10000 nM
18 | CN1CCCN(Cc2nc3cc(N)ccc3c(=O)n2-c2ccc(F)cc2Cl)CC1 [Compound 13, 7-amino-3-(2-chloro-4-fluorophenyl)-2-((4-methyl-1,4-diazepan-1-yl)methyl)quinazolin-4(3H)-one] | > 2000 nM | 
